Measured values taken from patent US20080287445A1, “Prokineticin 2 receptor antagonists” (priority 2005, published 2008).
Several values for one entry are separate records, joined by “and”; a condition that tells them apart may be missing. Identical values can stand only once.

Target: T1, GPR73 (prokineticin 1 receptor) (Homo sapiens, UniProt Q8TCW9)
T1 construct: expressed in transfected cells; host or cells: HEK 293
Assay: PK1 functional assay: Ca2+ mobilization screening for PK1 antagonists on the FLIPR
Type: cell-based
Settings: HEK 293 GPR73 cells, multiple values = multiple testing; for inhibition at 10 µM: HEK293, 10 μM compound, read-out: Ca^2+ Mobilization % Inh @ 10 μM; for IC50: PK1 ligand preparation at its EC50, read-out: Ca^2+ Mobilization IC50; for Ca^2+ Mobilization % Inh @ 10 μM: 10 μM compound
Description: At a time of 24 h prior to running the assay, in cell culture media (DMEM containing high Glucose and L-glutamine, 10% FBS, 1% Pen/Streptomycin, 1% Sodium Pyruvate, 20 mM HEPES, Zeocin 200 mg/L), 100 μL of 1.3*10^6/ml HEK 293 GPR73 (prokineticin 1 receptor) expressing cells were plated in a 96 well poly-d-lysine coated plate (Costar), and incubated at 37 C and 5% CO2. On the day in which the assay was run, the media was removed and 200 μL of 5× Calcium Plus Dye (Molecular Devices) which was previously resuspended with 200 mL of assay buffer [HBSS w/Ca^2+ and Mg^2+ w/o phenol red, 20 mM HEPES, 0.1% BSA, 10 mL probenecid (710 mg probenecid in 5 mL of 1N NaOH, to which was then added 5 mL HBSS containing 20 mM HEPES)] was added to each well of the 96-well plate. The plate was incubated at 37 C and 5% CO2 for 30 min in dark. The plate was removed and allowed to reach RT for 15 min in the dark. The assay was then run on the FLIPR. In Brief: base line read for 1 min, compound added (25 μL) and incubated for 4 min, 15 seconds, PK1 ligand preparation added (25 μL) for a final concentration of a previously determined EC50 and fluorescence was counted for 1 min, 45 seconds. Baseline is described as the amount of relative fluorescence read when buffer alone is added to cells. Baseline was subtracted from all wells. Percent of control was calculated as follows:
(Baseline subtracted well value is divided by baseline subtracted max value)*100. Percent inhibition is 100 minus the percent of control value.
The IC50 is defined as the amount of a given compound required to inhibit 50% of the maximum signal that is generated by the concentration of PK1 preparation used in our assay. IC50 values were calculated using GraphPad Prism.

T1 sequence (Q8TCW9 whole entry, species assumed): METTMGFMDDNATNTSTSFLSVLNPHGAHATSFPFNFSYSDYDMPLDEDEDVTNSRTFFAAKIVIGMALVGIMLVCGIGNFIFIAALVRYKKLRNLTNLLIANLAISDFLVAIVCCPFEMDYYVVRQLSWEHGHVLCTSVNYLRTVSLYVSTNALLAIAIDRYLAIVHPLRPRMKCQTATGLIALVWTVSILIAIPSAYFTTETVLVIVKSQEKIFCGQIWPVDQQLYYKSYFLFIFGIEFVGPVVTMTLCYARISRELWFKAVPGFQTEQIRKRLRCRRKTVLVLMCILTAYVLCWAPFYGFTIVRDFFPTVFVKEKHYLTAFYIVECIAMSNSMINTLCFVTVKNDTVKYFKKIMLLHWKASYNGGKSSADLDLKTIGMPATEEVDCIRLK

| SMILES | inhibition at 10 µM [%] | IC50 | Ca^2+ Mobilization % Inh @ 10 μM |
| --- | --- | --- | --- |
| COc1ccc(Cn2c(=O)nc(NCc3cnc(C)cc3C)n(Cc3cc4ccccc4o3)c2=O)cc1 [Cpd 102] | 99 | 110 nM | – |
| COc1ccc(Cn2c(=O)nc(NCc3cnc(C)cc3C)n(Cc3ccccc3OC(F)(F)F)c2=O)cc1 [Cpd 105] | 85 | 437 nM | – |
| C=CCC(c1ccc(OC)cc1)n1c(=O)nc(NCc2cnc(C)cc2C)n(Cc2ccc(OC)cc2)c1=O (centres unmarked) [Cpd 109] | 89 | 681 nM | – |
| COc1ccc(Cn2c(NCc3cnc(C)cc3C)nc(=O)n(Cc3ccc(C(F)(F)F)cc3)c2=O)cc1 [Cpd 110] | 48 | 9070 nM | – |
| COc1ccc(Cn2c(NCc3cnc(C)cc3C)nc(=O)n(Cc3cccc(OC)c3)c2=O)cc1 [Cpd 111] | 57 | 7880 nM | – |
| COc1ccc(Cn2c(NCc3cnc(C)cc3C)nc(=O)n(Cc3cccc(F)c3)c2=O)cc1 [Cpd 112] | 74 | 2550 nM | – |
| COC(=O)c1ccc(Cn2c(=O)nc(NCc3cnc(C)cc3C)n(Cc3ccc(OC)cc3)c2=O)cc1 [Cpd 114] | 48 | 6310 nM | – |
| COc1ccc(Cn2c(=O)nc(NCc3cnc(C)cc3C)n(Cc3ccc(Cl)cc3)c2=O)cc1 [Cpd 117] | 97 | 218 nM | – |
| COc1ccc(Cn2c(NCc3c[n+]([O-])c(C)cc3C)nc(=O)n(Cc3ccc(OC)cc3)c2=O)cc1 [Cpd 118] | 80 | 1370 nM | – |
| COc1ccc(Cn2c(NCc3cccnc3N)nc(=O)n(CCc3c[nH]c4ccccc34)c2=O)cc1 [Cpd 119] | 40 | > 10000 nM | – |
| COc1ccc(Cn2c(NCc3cccnc3N)nc(=O)n(CC3COc4ccccc4O3)c2=O)cc1 (centres unmarked) [Cpd 120] | 40 | > 10000 nM | – |
| COc1ccc(Cn2c(OCc3cccnc3)cc(=O)n(Cc3ccc(OC)cc3)c2=O)cc1 [Cpd 121, 1,3-Bis-(4-methoxy-benzyl)-6-(pyridin-3-ylmethoxy)-1H-pyrimidine-2,4-dione] | 58 | 6330 nM | – |
| COc1ccc(Cn2c(=O)nc(NCc3cccnc3N)n(Cc3ccc4c(c3)CCO4)c2=O)cc1 [Cpd 125] | 97 | 54 nM and 14 nM | 99% |
| COc1ccc(Cn2c(=O)nc(NCc3cccnc3N)n(Cc3ccc4occc4c3)c2=O)cc1 [Cpd 126] | 89 | 232 nM | – |
| COc1ccc(Cn2c(=O)nc(NCc3cccnc3N)n(Cc3ccc4[nH]ccc4c3)c2=O)cc1 [Cpd 127] | 81 | 607 nM | – |
| COc1ccc(Cn2c(=O)nc(NCc3cnc(C)cc3C)n(Cc3ccc4c(c3)CCO4)c2=O)cc1 [Cpd 128] | 93 | 126 nM and 214 nM | 98% |
| COc1ccc(Cn2c(=O)nc(NCc3cnc(C)cc3C)n(Cc3ccc(S(C)(=O)=O)cc3)c2=O)cc1 [Cpd 132] | 79 | 247 nM | – |
| COc1ccc(Cn2c(NCc3cccnc3N)nc(=O)n(Cc3ccc4occc4c3)c2=O)cc1 [Cpd 134] | 86 | 225 nM | – |
| COc1ccc(Cn2c(=O)nc(NCc3cccnc3N)n(Cc3ccc(OC)c([N+](=O)[O-])c3)c2=O)cc1 [Cpd 137] | 68 | 1040 nM | – |
| COc1ccc(Cn2c(NCc3cccnc3N)nc(=O)n(CCOc3ccc(F)cc3)c2=O)cc1 [Cpd 141, 6-[(2-Amino-pyridin-3-ylmethyl)-amino]-3-[2-(4-fluoro-phenoxy)-ethyl]-1-(4-methoxy-benzyl)-1H-[1,3,5]triazine-2,4-dione] | 82 | 1130 nM | – |
| COc1ccc(Cn2c(NCc3cnc(C)cc3C)nc(=O)n(Cc3ccccc3OC)c2=O)cc1 [Cpd 144] | 36 | > 10000 nM | – |
| COc1ccc(Cn2c(NCc3cccnc3N)nc(=O)n(Cc3ccc4sccc4c3)c2=O)cc1 [Cpd 145] | 90 | 317 nM | – |
| COc1ccc(Cn2c(=O)nc(NCc3cccnc3N)n(CC3CCC(OC)CC3)c2=O)cc1 (centres unmarked) [Cpd 149] | 86 | 788 nM | – |
| COc1ccc(Cn2c(=O)nc(NCc3cnc(C)cc3C)n(CC3CCC(OC)CC3)c2=O)cc1 (centres unmarked) [Cpd 150] | 78 | 595 nM | – |

Now from value to compound:

| inhibition at 10 µM [%] | IC50 | Ca^2+ Mobilization % Inh @ 10 μM | SMILES |
| --- | --- | --- | --- |
| 41 | > 10000 nM | – | CCCCCCn1c(NCc2cnc(C)cc2C)nc(=O)n(Cc2ccc(OC)cc2)c1=O [Cpd 103] |
| 96 | 193 nM | – | COc1ccc(Cn2c(=O)nc(NCc3cnc(C)cc3C)n(Cc3ccc(OC)nc3)c2=O)cc1 [Cpd 104] |
| 89 | 868 nM | – | CCOc1ccc(Cn2c(=O)nc(NCc3cnc(C)cc3C)n(Cc3ccc(OC)cc3)c2=O)cc1 [Cpd 107] |
| 42 | > 10000 nM | – | COc1ccc(Cn2c(NCc3cnc(C)cc3C)nc(=O)n(Cc3ccc([N+](=O)[O-])cc3)c2=O)cc1 [Cpd 108] |
| 98 | 244 nM | – | COc1ccc(Cn2c(NCc3cccc(N)n3)nc(=O)n(Cc3ccc(OC)cc3)c2=O)cc1 [Cpd 115, 6-[(6-Amino-pyridin-2-ylmethyl)-amino]-1,3-bis-(4-methoxy-benzyl)-1H-[1,3,5]triazine-2,4-dione] |
| 95 | 391 nM | – | COc1ccc(Cn2c(=O)nc(NCc3cnc(C)cc3C)n(Cc3ccc(F)cc3)c2=O)cc1 [Cpd 116] |
| 76 | 194 nM | – | COc1ccc(Cn2c(NCc3ccc(C(F)(F)F)nc3)nc(=O)n(Cc3ccc(OC)cc3)c2=O)cc1 [Cpd 122] |
| 83 | 684 nM | – | COc1ccc(Cn2c(NCc3cnc(C)cc3C)nc(=O)n(Cc3ccc4c(c3)CCO4)c2=O)cc1 [Cpd 123, 3-(2,3-Dihydro-benzofuran-5-ylmethyl)-6-[(4,6-dimethyl-pyridin-3-ylmethyl)-amino]-1-(4-methoxy-benzyl)-1H-[1,3,5]triazine-2,4-dione] |
| 61 | 815 nM | – | COc1ccc(Cn2c(NCc3cccnc3N)nc(=O)n(Cc3ccc(OC)c([N+](=O)[O-])c3)c2=O)cc1 [Cpd 124] |
| 88 | 120 nM | – | COc1ccc(Cn2c(=O)nc(NCc3cnc(C)cc3C)n(Cc3ccc4occc4c3)c2=O)cc1 [Cpd 129] |
| 92 | 245 nM | – | COc1ccc(Cn2c(=O)nc(NCc3cnc(C)cc3C)n(Cc3ccc4[nH]ccc4c3)c2=O)cc1 [Cpd 130] |
| 100 | 122 nM | – | COc1ccc(Cn2c(=O)nc(NCc3cccnc3N)n(Cc3ccc(S(C)(=O)=O)cc3)c2=O)cc1 [Cpd 131] |
| 88 | 582 nM | – | COc1ccc(Cn2c(NCc3cnc(C)cc3C)nc(=O)n(Cc3ccc4occc4c3)c2=O)cc1 [Cpd 133] |
| 94 | 186 nM | – | COc1ccc(Cn2c(=O)nc(NCc3cccnc3N)n(Cc3ccc(OC(C)(C)C)cc3)c2=O)cc1 [Cpd 135] |
| 92 | 15 nM and 34 nM | 102% | COc1ccc(Cn2c(=O)nc(NCc3cnc(C)cc3C)n(Cc3ccc(OC)c([N+](=O)[O-])c3)c2=O)cc1 [Cpd 136] |
| 61 | 1510 nM and 2700 nM | 73% | COc1ccc(Cn2c(=O)nc(NCc3cccnc3N)n(Cc3cccc4[nH]ccc34)c2=O)cc1 [Cpd 138] |
| 92 | – | 97% and 100% | COc1ccc(Cn2c(=O)nc(NCc3cnc(C)cc3C)n(Cc3cccc4[nH]ccc34)c2=O)cc1 [Cpd 139] |
| 91 | 192 nM | – | COc1ccc(Cn2c(=O)nc(NCc3cccnc3N)n(Cc3ccc4sccc4c3)c2=O)cc1 [Cpd 140] |
| 76 | 387 nM | – | COc1ccc(Cn2c(=O)nc(NCc3cnc(C)cc3C)n(Cc3ccc4sccc4c3)c2=O)cc1 [Cpd 142] |
| 31 | > 10000 nM | – | COc1ccc(Cn2c(NCc3cccnc3N)nc(=O)n(Cc3ccccc3OC)c2=O)cc1 [Cpd 143] |
| 80 | 2140 nM | – | COc1ccc(Cn2c(NCc3cnc(C)cc3C)nc(=O)n(Cc3ccc4sccc4c3)c2=O)cc1 [Cpd 146] |
| 99 | 110 nM | – | CCCNc1cccc(CNc2nc(=O)n(Cc3ccc(OC)cc3)c(=O)n2Cc2ccc(OC)cc2)n1 [Cpd 147, 1,3-Bis-(4-methoxy-benzyl)-6-[(6-propylamino-pyridin-2-ylmethyl)-amino]-1H-[1,3,5]triazine-2,4-dione] |
| 86 | 503 nM | – | COc1ccc(Cn2c(NCc3cccc(N)n3)cc(=O)n(Cc3ccc(OC)cc3)c2=O)cc1 [Cpd 148, 6-[(6-Amino-pyridin-2-ylmethyl)-amino]-1,3-bis-(4-methoxy-benzyl)-1H-pyrimidine-2,4-dione] |
